Assay results published in patent US20090182039A1, “Choline Salt Crystal of Azulene Compound” (priority 2005, published 2009).
Each block holds one compound with its values, some of them ahead of it.

Assays:
[1] = Crystal form stability (DSC analysis / X-ray powder diffraction); format: physicochemical; details: behaviour on heating, drying or at room temperature
Method: X-ray powder diffraction and differential scanning calorimeter analysis (DSC analysis) were conducted under the following conditions. “MAC Science […]22” equipped with a copper X-ray tube was used under the conditions of a current of 40 mA, a tube voltage of […], a sampling width of 0.020°, a scanning rate of 3°/min, wavelength of 1.54056 Å, and measurement angles of diffraction range of (2θ): 3 or 5 to 40°. “TA Instrument TA 5000” was used at a temperature from room temperature to 300° C. (10° C./min) and a N2 feed rate of 50 ml/min using an aluminum sampling pan.

Storage stability test = format: physicochemical
Method: (2-hydroxyethyl)trimethylammonium-4-(azulene-2-ylmethyl)-2-β-D-glucopyranosylphenolate (46 g) was put into a polyethylene bag, and the opening of the bag was closed with a bead band. The bag was put into another polyethylene bag containing silica gel (12 g). The opening of the bag was closed with a bead band. The bag was placed in a metal can, which was tightly sealed and stored in a dark place at 40° C. and 75% RH for six months. Apart from this, (2-hydroxyethyl)trimethylammonium-4-(azulene-2-ylmethyl)-2-β-D-glucopyranosylphenolate (10 g) was put into an open brown container and stored in a dark place at 40° C. and 75% RH for six months.

[2] = molecular target: T1, Human Na+-glucose cotransporter (human SGLT2) (Homo sapiens, UniProt P31639); experiment: Inhibition of methyl-α-D-glucopyranoside intake in CHO cells stably expressing human SGLT2; format: cell-based; details: stated as equivalent to the value of Example 75 of Patent Document 1
T1 construct: expressed in transfected cells; host or cells: CHO-K1
T1 sequence (P31639 1-672): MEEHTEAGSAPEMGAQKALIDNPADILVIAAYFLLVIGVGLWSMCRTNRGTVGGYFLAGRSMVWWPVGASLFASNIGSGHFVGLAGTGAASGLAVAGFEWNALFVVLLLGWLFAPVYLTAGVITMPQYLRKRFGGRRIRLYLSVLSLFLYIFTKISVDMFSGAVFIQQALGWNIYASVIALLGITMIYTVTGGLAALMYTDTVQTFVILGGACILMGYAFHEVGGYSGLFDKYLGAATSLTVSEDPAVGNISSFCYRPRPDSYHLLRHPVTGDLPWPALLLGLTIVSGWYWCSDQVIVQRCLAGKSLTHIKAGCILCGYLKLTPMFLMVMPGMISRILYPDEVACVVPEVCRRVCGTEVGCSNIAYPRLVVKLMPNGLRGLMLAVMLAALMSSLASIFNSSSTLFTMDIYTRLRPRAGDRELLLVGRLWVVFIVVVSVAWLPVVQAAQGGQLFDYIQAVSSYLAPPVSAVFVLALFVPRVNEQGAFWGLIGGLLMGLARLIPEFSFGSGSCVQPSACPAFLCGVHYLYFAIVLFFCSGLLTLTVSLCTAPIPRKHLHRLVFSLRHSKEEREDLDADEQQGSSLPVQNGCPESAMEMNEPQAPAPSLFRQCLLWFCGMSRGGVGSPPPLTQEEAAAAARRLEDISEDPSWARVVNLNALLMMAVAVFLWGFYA
Description: [Test for Confirming Effect of Inhibiting Activity of Human Na^+-Glucose Cotransporter (Human SGLT2)]
First, single-stranded cDNA was reversely transcripted from total RNA originating from human kidney (manufactured by BD Biosciences Clontech) using a Superscript II (manufactured by Invitrogen Corporation) and a random hexamer. Second, using the cDNA as a template, a DNA fragment encoding human SGLT2 (Wells R. G. et al., Am. J. Physiol., 1992, 263 (3) F459) was amplified by a PCR reaction using Pyrobest DNA polymerase (manufactured by Takara Bio Inc.) (A primer where a Hind III site and an EcoRI site were inserted into the 5′ side and the 3′ side of the DNA fragment, respectively, was used).
The amplified fragment was cloned into a pCR2.1-Topo vector using a Topo TA Cloning Kit (manufactured by Invitrogen Corporation), and the cloned vector was transfected into a competent cell of Escherichia coli JM109. Ampicillin-resistant clones were cultured in a LB medium containing ampicillin (100 mg/l). A plasmid was purified from the cultured Escherichia coli using the method of Hanahan (see Maniatis et al., “Molecular Cloning”). […]

[3] = 40° C., 75% RH, silica gel/polyethylene bags (double) in a metal can, dark place, 2 months
[4] = 40° C., 75% RH, silica gel/polyethylene bags (double) in a metal can, dark place, 4 months
[5] = 40° C., 75% RH, silica gel/polyethylene bags (double) in a metal can, dark place, 6 months
[6] = at the start of storing, 0 month
[7] = 40° C., 75% RH, brown glass container, open, dark place, 2 months
[8] = 40° C., 75% RH, brown glass container, open, dark place, 4 months
[9] = 40° C., 75% RH, brown glass container, open, dark place, 6 months

Structure (SMILES): [Na+].[O-]c1ccc(Cc2cc3cccccc-3c2)cc1[C@@H]1O[C@H](CO)[C@@H](O)[C@H](O)[C@H]1O [Comparative Example 1, sodium 4-(azulen-2-ylmethyl)-2-β-D-glucopyranosylphenolate]
- Stability of the crystal form [1]: change form due to dissociation of volatile components at a low temperature

Structure (SMILES): [K+].[O-]c1ccc(Cc2cc3cccccc-3c2)cc1[C@@H]1O[C@H](CO)[C@@H](O)[C@H](O)[C@H]1O [Comparative Example 2, potassium 4-(azulen-2-ylmethyl)-2-β-D-glucopyranosylphenolate]
- Stability of the crystal form [1]: change form due to dissociation of volatile components at a low temperature

Structure (SMILES): [Li+].[O-]c1ccc(Cc2cc3cccccc-3c2)cc1[C@@H]1O[C@H](CO)[C@@H](O)[C@H](O)[C@H]1O [Comparative Example 3, lithium 4-(azulen-2-ylmethyl)-2-β-D-glucopyranosylphenolate]
- Stability of the crystal form [1]: change form due to dissociation of volatile components at a low temperature

Structure (SMILES): OC[C@H]1O[C@@H](c2cc(Cc3cc4cccccc-4c3)ccc2O)[C@H](O)[C@@H](O)[C@@H]1O [Comparative Example 5, (1S)-1,5-anhydro-1-[5-(azulen-2-ylmethyl)-2-hydroxyphenyl]-D-glucitol hydrate crystal-1]
- Stability of the crystal form [1]: transformed into anhydride crystal-3 of azulene compound A

Structure (SMILES): OC[C@H]1O[C@@H](c2cc(Cc3cc4cccccc-4c3)ccc2O)[C@H](O)[C@@H](O)[C@@H]1O [Comparative Example 7, (1S)-1,5-anhydro-1-[5-(azulen-2-ylmethyl)-2-hydroxyphenyl]-D-glucitol anhydride crystal-1]
- Stability of the crystal form [1]: stable only at high temperature and cannot be isolated at room temperature

Structure (SMILES): OC[C@H]1O[C@@H](c2cc(Cc3cc4cccccc-4c3)ccc2O)[C@H](O)[C@@H](O)[C@@H]1O [Comparative Example 8, (1S)-1,5-anhydro-1-[5-(azulen-2-ylmethyl)-2-hydroxyphenyl]-D-glucitol anhydride crystal-2]
- Stability of the crystal form [1]: stable only at a high temperature and could not be isolated at room temperature

- Analogous compounds (%) (HPCL) Maximum of each compound (Storage stability test; [3]): 0.26%
- Analogous compounds (%) (HPCL) Total amount (Storage stability test; [3]): 0.66%
- Quantitative analysis (%) (HPCL) (Storage stability test; [3]): 99.5%
- Water content (%) (Storage stability test; [3]): 0.29%
- Analogous compounds (%) (HPCL) Maximum of each compound (Storage stability test; [4]): 0.26%
- Analogous compounds (%) (HPCL) Total amount (Storage stability test; [4]): 0.62%
- Quantitative analysis (%) (HPCL) (Storage stability test; [4]): 99.0%
- Water content (%) (Storage stability test; [4]): 0.22%
- Analogous compounds (%) (HPCL) Maximum of each compound (Storage stability test; [5]): 0.27%
- Analogous compounds (%) (HPCL) Total amount (Storage stability test; [5]): 0.44%
- Quantitative analysis (%) (HPCL) (Storage stability test; [5]): 99.5%
- Water content (%) (Storage stability test; [5]): 0.19%
- Storage stability (conclusion from Table 3) (Storage stability test; 40° C., 75% RH, six months): stable compounds
- Analogous compounds (%) (HPCL) Maximum of each compound (Storage stability test; [6]): 0.26%
- Analogous compounds (%) (HPCL) Total amount (Storage stability test; [6]): 0.61%
- Quantitative analysis (%) (HPCL) (Storage stability test; [6]): 99.0%
- Water content (%) (Storage stability test; [6]): 0.39%
- IC50 [2]: ~8.9 nM
Structure (SMILES): OC[C@H]1O[C@@H](c2cc(Cc3cc4cccccc-4c3)ccc2O)[C@H](O)[C@@H](O)[C@@H]1O [Example 1, (2-hydroxyethyl)trimethylammonium 4-(azulen-2-ylmethyl)-2-β-D-glucopyranosylphenolate]

- Analogous compounds (%) (HPCL) Maximum of each compound (Storage stability test; [7]): 0.25%
- Analogous compounds (%) (HPCL) Total amount (Storage stability test; [7]): 0.58%
- Quantitative analysis (%) (HPCL) (Storage stability test; [7]): 99.2%
- Water content (%) (Storage stability test; [7]): 3.78%
- Analogous compounds (%) (HPCL) Maximum of each compound (Storage stability test; [8]): 0.24%
- Analogous compounds (%) (HPCL) Total amount (Storage stability test; [8]): 0.57%
- Quantitative analysis (%) (HPCL) (Storage stability test; [8]): 99.9%
- Water content (%) (Storage stability test; [8]): 3.59%
- Analogous compounds (%) (HPCL) Maximum of each compound (Storage stability test; [9]): 0.24%
- Analogous compounds (%) (HPCL) Total amount (Storage stability test; [9]): 0.43%
- Quantitative analysis (%) (HPCL) (Storage stability test; [9]): 98.8%
- Water content (%) (Storage stability test; [9]): 3.61%
Structure (SMILES): OC[C@H]1O[C@@H](c2cc(Cc3cc4cccccc-4c3)ccc2O)[C@H](O)[C@@H](O)[C@@H]1O [Example 2, (2-hydroxyethyl)trimethylammonium 4-(azulen-2-ylmethyl)-2-β-D-glucopyranosylphenolate hydrate]
